Experimental data as given in ChEMBL document CHEMBL3430912, “GSK Tres Cantos Anti-Kinetoplastid Screening (TCAKS) Data”.

Assays:
[1] = system: Trypanosoma cruzi; test: GSK_TCAKS: pIC50 Trypanosoma cruzi viability assay using beta-GAL activity. This assay was run at single shot at 5uM compound concentration per well. The biological reagents consisted of NIH-3T3 host cells and trypomastigotes parasitic cells; both cell types were set to a 3.3 * 10^5 cells/mL dilution in assay DMEM by means of a CASY cell counter device using a 60um capillary. 6 uL of the mixture were dispensed per well (about 1 * 10^3 host-cells and 1 * 10^3 parasites) with a Multidrop Combi dispenser. […] In all wells, the percentage of DMSO never exceeded 0.5%. Plates incubated for four days at 37C, 5% CO2. The substrate used for the assay fluorescence intensity (FLINT) readout was resorufin-beta-D-galactopiranoside (Sigma-Aldrich) at 5uM per well. It was diluted in PBS supplemented with the soft detergent Igepal (Fluka).; type: functional, organism-based, Mus musculus; details: Tulahuen, NIH3T3
[2] = system: Leishmania donovani; test: (§1) GSK_TCAKS: pIC50 Leishmania donovani Imaging: THP-1 Host Macrophages. Assay plates (384-well) were prepared by adding 250nL of compound to each well. For single shot assay, the final compound concentration was 5 uM. […] Automated image analysis was performed with a script developed on Acapella High Content Imaging and Analysis Software (PerkinElmer). Output: THP-1 cell count were reported for each well.; type: functional, organism-based, Homo sapiens
[3] = system: Trypanosoma brucei brucei; test: GSK_TCAKS: pIC50 Trypanosoma brucei viability assay using luminiscence. Assay plates (1536-well) were prepared. T. brucei cultures were harvested and counted in a CASY cell counter. A parasite suspension was prepared at a final concentration of 5 * 10^4 cells/mL in complete HMI9 medium and 6uL was dispensed to all wells containing compounds using a Multidrop Combi dispenser. 6uL of HMI9 media with 0.4% DMSO were dispensed to control columns. Plates were incubated for 24 h at 37C, 5% CO2 then tempered for 10 min at room temperature. ATP content was quantified by adding 4 uL of CellTiter-Glo Reagent (Promega) according to the manufacturer's instructions. Luminescence was measured using a ViewLux.; type: functional, organism-based; details: Lister 427, CASY
[4] = system: Leishmania donovani; test: as §1, with “Infected” for “THP-1 Host”, “Percent of infected macrophage cells” for “THP-1 cell count”; type: functional, organism-based, Homo sapiens; details: THP-1
[5] = system: Trypanosoma cruzi; test: (§2) GSK_TCAKS: pIC50 Trypanosoma cruzi Imaging: Infected Cells. […] Cells were then washed once with PBS before infection. T. cruzi trypomastigotes, collected at days 5 to 8 after infection from LLC-MK2 parasite infected cultures, were allowed to swim out for 4h at 37C from a centrifuged pellet (2,500 rpm/10 min/room temperature). Trypomastigotes were then collected and counted in a CASY Cell Counter. Trypomastigotes, in supplemented DMEM, were added to H9c2 cultures in a multiplicity of infection of 1 and incubated for 18 h. Cells were washed once with PBS before incubation of the infected H9c2 monolayer with trypsin (Life-Technologies) to detach cells from the flask. Cells were counted in a CASY Cell Counter using a 150 um capillary and their density set at 5 * 10^4 cells per mL in supplemented assay DMEM. Infected H9c2 were dispensed into 384-well poly-lysine coated assay plates at 50uL per well using a Multidrop Combi dispenser. After seeding them, the plates were incubated at 37C, 5% CO2 for 72h. Cultures were then fixed and stained by addition of 50 uL of a solution containing 8% formaldehyde and 4 uM DRAQ5 DNA dye (BioStatus, UK) per well. […] Five images were collected per well for reliable statistical analysis. Automated image analysis was performed with a script developed on Acapella High Content Imaging and Analysis Software (PerkinElmer). Output: percentage of infected cells per well as a second infection marker.; type: functional, organism-based, Rattus norvegicus; details: H9c2, 4 h
[6] = system: Trypanosoma cruzi; test: as §2, with “H2C9” for “Trypanosoma cruzi”, “H9c2 Host Cardiomyocytes.” for “Infected Cells.”, “Number” for “percentage”, “H9c2 Host Cardiomyocytes nuclei to determine drug-related cytotoxicity.” for “infected cells per well as a second infection marker.”; type: functional, organism-based, Rattus norvegicus; details: H9c2, 4 h
[7] = biological target: Sterol 14-alpha demethylase (Trypanosoma cruzi (strain CL Brener), UniProt Q7Z1V1); test: GSK_TCAKS: pIC50 CYP51 from Trypanosoma cruzi.; type: functional
Sterol 14-alpha demethylase, sequence (Q7Z1V1 whole entry): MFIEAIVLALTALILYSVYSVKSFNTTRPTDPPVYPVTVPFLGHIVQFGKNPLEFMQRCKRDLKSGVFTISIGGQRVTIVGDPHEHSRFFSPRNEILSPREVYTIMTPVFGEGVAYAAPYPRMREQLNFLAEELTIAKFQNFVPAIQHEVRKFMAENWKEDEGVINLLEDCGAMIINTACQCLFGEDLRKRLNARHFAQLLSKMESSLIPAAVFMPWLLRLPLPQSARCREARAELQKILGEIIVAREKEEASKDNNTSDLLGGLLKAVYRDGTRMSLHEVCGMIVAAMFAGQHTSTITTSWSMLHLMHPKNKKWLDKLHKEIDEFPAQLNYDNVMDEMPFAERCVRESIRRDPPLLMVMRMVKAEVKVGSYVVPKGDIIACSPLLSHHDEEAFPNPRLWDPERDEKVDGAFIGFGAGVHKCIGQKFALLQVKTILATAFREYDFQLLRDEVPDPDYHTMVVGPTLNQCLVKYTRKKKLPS

[8] = GSK_TCAKS: pIC50 HepG2 human cell line viability assay using luminiscence. […] Seeding density was checked to ensure that new mono-layers were not more than 50% confluent at the time of harvesting. Cell suspension was added to 500 mL of the same medium at a final density of 1.2 * 10^5 cells/mL. This cell suspension was dispensed (25 uL, 3000 cells per well) into 384-well clear-bottom plates using a Multidrop Combi dispenser. Prior to addition of the cell suspension, the screening compounds (250 nL) were pre-dispensed into the plates with an Echo liquid handler. Plates were incubated for 48 h at 37C, 5% CO2. After incubation, plates equilibrated at room temperature for 30 min before proceeding to develop the luminescent signal. The signal developer, CellTiter-Glo Reagent, was allowed to equilibrate at room temperature for 30 min and added to the plates (25uL per well) using a Multidrop Combi dispenser. Plates were left for 10 min at room temperature for stabilization and then read using a ViewLux.; type: toxicity, cell-based
[9] = system: Leishmania donovani; test: as §1, with “Amastigotes/Macrophages.” for “THP-1 Host Macrophages.”, “Average number of amastigotes per macrophage” for “THP-1”, “cell” for “cell count”; type: functional, organism-based, Homo sapiens; details: THP-1
[10] = system: Trypanosoma cruzi; test: GSK_TCAKS: pIC50 Trypanosoma cruzi Imaging: Amastigotes/Cell. […] Cells were then washed once with PBS before infection. T. cruzi trypomastigotes, collected at days 5 to 8 after infection from LLC-MK2 parasite infected cultures, were allowed to swim out for 4h at 37C from a centrifuged pellet (2,500 rpm/10 min/room temperature). Trypomastigotes were then collected and counted in a CASY Cell Counter. Trypomastigotes, in supplemented DMEM, were added to H9c2 cultures in a multiplicity of infection of 1 and incubated for 18 h. Cells were washed once with PBS before incubation of the infected H9c2 monolayer with trypsin (Life-Technologies) to detach cells from the flask. Cells were counted in a CASY Cell Counter using a 150 um capillary and their density set at 5 * 10^4 cells per mL in supplemented assay DMEM. Infected H9c2 were dispensed into 384-well poly-lysine coated assay plates at 50uL per well using a Multidrop Combi dispenser. After seeding them, the plates were incubated at 37C, 5% CO2 for 72h. Cultures were then fixed and stained by addition of 50 uL of a solution containing 8% formaldehyde and 4 uM DRAQ5 DNA dye (BioStatus, UK) per well. […] Five images were collected per well for reliable statistical analysis. Automated image analysis was performed with a script developed on Acapella High Content Imaging and Analysis Software (PerkinElmer). Output: number of amastigotes per cell as infection level measurement.; type: functional, organism-based, Rattus norvegicus; details: H9c2, 4 h
[11] = system: Trypanosoma brucei brucei; test: GSK_TCAKS: pIC50 Trypanosoma brucei viability assay using fluorescence intensity. Assay plates (1536-well) were prepared by dispensing 25nL of compound solution per well using an Echo acoustic dispenser (Labcyte).; type: functional, organism-based; details: Lister 427, 2 h
[12] = system: NIH3T3; test: GSK_TCAKS: pIC50 NIH 3T3 cell line viability assay using luminiscence. Tissue culture surface treated assay plates (1536-well) were used. […] The 100% cells survival control was determined exposing the host-cells to a 0.5% DMSO concentration, whereas the 100% toxicity control was achieved by seeding the cells in presence of Amphotericin B at 50uM. Plates were incubated for four days at 37C, 5% CO2. The assay readout was developed by addition of 5uL of CellTiter-Glo Reagent following the manufacturer's instructions. Luminiscence was measured using a ViewLux.; type: functional, cell-based; details: Mus musculus, NIH3T3, 96 h
[13] = system: Leishmania donovani; test: GSK_TCAKS: pIC50 Leishmania donovani viability assay using fluorescence intensity. Assay plates (1536-well) were prepared by adding 30nL per well of compound. For single shot assay, the final compound concentration was 5uM. […] Briefly, eGFP LdBOB axenic amastigotes were harvested, fixed and counted in a CASY cell counter (Roche-Applied Science). A final concentration of 1.5 * 10^5 cells per well were prepared in amastigote media containing 500 U/mL penicillin/streptomycin (Invitrogen) and 6uL was dispensed to each experimental well using a Multidrop Combi dispenser (Thermo Scientific). 6uL of assay media was dispensed to control columns used as reference for 100% compound response. Following incubation for 72 h at 37C, 5% CO2, 2 uL of resazurin was added to each well at a final concentration of 0.5 mM in phosphate buffered saline (PBS) with IGEPAL (Sigma-Aldrich), 0.05% (v/v).; type: functional, organism-based

SMILES | IC50 [1] [µM] | IC50 [2] [µM] | IC50 [3] [µM] | IC50 [4] [µM] | IC50 [5] [µM] | IC50 [6] [µM] | IC50 [7] [µM] | IC50 at 48 h [8] [µM] | IC50 [9] [µM] | IC50 [10] [µM] | IC50 [11] [µM] | IC50 [12] [µM] | IC50 [13] [µM]
Cc1ccc(C)c(-n2nnnc2Sc2nc([N+](=O)[O-])nn2C)c1 | 0.501 | > 50.1 | 15.8 | > 50.1 | 0.794 | > 50.1 | > 100 | > 100 | > 50.1 | 0.251 | 12.6 | > 50.1 | > 50.1
CN(Cc1ccc(C(N)=O)cc1)C(c1ccc(F)cc1)c1cccnc1 (stereo not drawn) | 0.158 | > 50.1 | > 39.8 | > 50.1 | 0.251 | > 50.1 | 0.1 | > 100 | > 50.1 | 0.2 | > 39.8 | 31.6 | > 50.1
CNc1cc(C)nc(C2CN(C(=O)c3n[nH]c4ccccc34)CCO2)c1 (stereo not drawn) | 1.26 | > 50.1 | > 39.8 | > 50.1 | 2.51 | > 50.1 | > 100 | > 100 | > 50.1 | 0.794 | 20 | > 50.1 | > 50.1
Cc1ccccc1OCC(=O)N1CCCN(c2cccnn2)CC1 | 0.316 | > 50.1 | > 39.8 | > 50.1 | 0.631 | > 50.1 | 0.0794 | > 100 | > 50.1 | 0.501 | > 39.8 | 50.1 | 12.6
Cc1ccc(S(=O)(=O)Nc2ccc(CN3CCN(C(=O)c4cccc(C#N)c4)CC3)cc2)cc1 | 0.501 | > 50.1 | 0.316 | > 50.1 | 0.501 | > 50.1 | > 100 | > 100 | 25.1 | 0.398 | 0.158 | > 50.1 | 10
Cc1nccn1C1CCCN(C(=O)c2cc3c(F)cccc3s2)C1 (stereo not drawn) | 0.631 | > 50.1 | > 39.8 | > 50.1 | 1 | > 50.1 | 50.1 | > 100 | > 50.1 | 0.794 | > 39.8 | 20 | 5.01
Cc1cc2cncn2c(C2CCCCN2C(=O)c2cccs2)n1 (stereo not drawn) | 0.0251 | > 50.1 | > 39.8 | > 50.1 | 0.0631 | > 50.1 | 0.1 | > 100 | > 50.1 | 0.0631 | > 39.8 | > 50.1 | 0.398
CC(Cn1ccnc1)NC(=O)C1CC1c1cccc(Cl)c1Cl (stereo not drawn) | 0.141 | > 50.1 | > 39.8 | > 50.1 | 0.251 | > 50.1 | 0.126 | > 100 | 10 | 0.2 | > 39.8 | > 50.1 | 15.8
COc1ccc2ncc(F)c(NC(=O)[C@]3(O)CC[C@@H](NCc4ccc5c(c4)OCCO5)CC3)c2n1 | 0.158 | 20 | 1.58 | 31.6 | 0.126 | 31.6 | 63.1 | 50.1 | 15.8 | 0.158 | 0.794 | 7.94 | 39.8
O=C(C1CCCCC1)N1CCN(c2nnc(-c3ccccc3)c3ccccc23)CC1 | 1 | 50.1 | > 39.8 | > 50.1 | 0.631 | > 50.1 | > 100 | > 100 | 20 | 0.398 | 10 | > 50.1 | > 50.1
O=C(Cn1cnc2cc([N+](=O)[O-])ccc2c1=O)NCCc1ccc(Cl)cc1Cl | 0.631 | > 50.1 | > 39.8 | > 50.1 | 0.398 | > 50.1 | > 100 | > 100 | > 50.1 | 0.2 | 12.6 | > 50.1 | > 50.1
O=c1ccn(-c2ccc([N+](=O)[O-])cc2Cl)c2ccc(F)cc12 | 1.58 | > 50.1 | > 39.8 | > 50.1 | 3.98 | > 50.1 | 15.8 | > 100 | > 50.1 | 1.26 | 25.1 | > 50.1 | > 50.1
CN(C(=O)Nc1ccc2c(c1)CCN(C1CCC1)CC2)c1ccc(C#N)cc1 | 2 | > 50.1 | 0.631 | > 50.1 | 3.98 | > 50.1 | > 100 | > 100 | > 50.1 | 2 | 0.2 | 39.8 | 39.8
COc1ccc2nccc([C@H](O)CN3CC[C@H](NC(=O)c4ccc(Br)cc4)[C@@H](O)C3)c2n1 | 0.251 | > 50.1 | 0.501 | > 50.1 | 1.58 | 2 | 6.31 | > 100 | > 50.1 | 0.158 | 0.2 | > 50.1 | 3.16
O=C(Nc1cccc(Cl)c1)N1CCCCC1c1cccnc1 (stereo not drawn) | 0.178 | > 50.1 | > 39.8 | > 50.1 | 0.2 | > 50.1 | 0.02 | > 100 | > 50.1 | 0.2 | > 39.8 | 31.6 | 3.16
COc1ccc([N+](=O)[O-])cc1NC(=O)Nc1cccc(Cl)c1 | 0.794 | 50.1 | 20 | > 50.1 | 10 | > 50.1 | > 100 | > 100 | > 50.1 | 0.398 | 6.31 | > 50.1 | > 50.1
